Assay results published in ChEMBL document CHEMBL1201862, “PubChem BioAssay data set” (2004).
Activity calls are given as the source filed them.

Experiments:
[1] = NIH-3T3 fibroblast cytotoxicity, dose response, cytotoxicity control, cell-based, fluorescence, Alamar Blue, secondary assay (AID 2327); type: functional;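 further: NIH-3T3 mouse fibroblasts cultured with fluconazole at 8 µg/mL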
[2] = biological target: T1, Replicative DNA helicase DnaB (Mycobacterium tuberculosis, UniProt P9WMR3); test: DnaB intein splicing inhibitors, dose response, biochemical, cell-free fluorescence (AID 449749); type: functional
T1 sequence (P9WMR3 whole entry): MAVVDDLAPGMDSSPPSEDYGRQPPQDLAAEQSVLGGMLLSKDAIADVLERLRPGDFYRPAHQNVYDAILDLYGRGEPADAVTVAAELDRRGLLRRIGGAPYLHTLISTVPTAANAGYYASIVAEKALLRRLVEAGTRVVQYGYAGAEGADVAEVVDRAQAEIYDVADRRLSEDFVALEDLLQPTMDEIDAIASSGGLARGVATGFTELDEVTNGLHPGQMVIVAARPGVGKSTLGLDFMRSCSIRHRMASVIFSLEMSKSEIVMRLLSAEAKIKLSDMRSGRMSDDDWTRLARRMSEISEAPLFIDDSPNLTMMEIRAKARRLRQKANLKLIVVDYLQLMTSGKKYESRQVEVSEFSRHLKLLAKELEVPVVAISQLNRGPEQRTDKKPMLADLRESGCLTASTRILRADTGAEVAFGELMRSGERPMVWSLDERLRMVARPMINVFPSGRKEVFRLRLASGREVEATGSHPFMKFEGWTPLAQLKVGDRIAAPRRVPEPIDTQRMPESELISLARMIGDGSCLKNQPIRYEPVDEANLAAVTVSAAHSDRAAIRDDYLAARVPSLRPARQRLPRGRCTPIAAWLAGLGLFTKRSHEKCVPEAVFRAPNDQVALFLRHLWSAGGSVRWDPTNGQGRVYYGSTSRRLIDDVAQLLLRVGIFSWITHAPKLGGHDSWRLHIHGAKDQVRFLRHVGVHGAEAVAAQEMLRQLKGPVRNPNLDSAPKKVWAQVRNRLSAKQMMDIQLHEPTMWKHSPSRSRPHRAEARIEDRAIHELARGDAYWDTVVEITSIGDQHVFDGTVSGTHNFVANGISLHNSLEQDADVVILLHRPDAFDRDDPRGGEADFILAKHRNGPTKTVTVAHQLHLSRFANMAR

[3] = Luminescence Cell-Based Dose Response HTS to Identify Inhibitors of 5'UTR Stem-Loop Driven Prion Protein mRNA Translation in H4 Neuroglioblastoma Cells. [Related pubchem assays: 1827 (Project Summary), 1813 (Primary HTS)]; type: functional
Exodeoxyribonuclease V = Exodeoxyribonuclease V (Escherichia coli (strain K12), UniProt P04993+P07648+P08394); test: RecBCD inhibition via phage-restricted bacterial growth – absorbance, V66 E. coli, mutant T4 phage, counter-screen for AddAB inhibitor project, dose response (AID 492957); type: functional, cell-based, Escherichia coli str. K-12 substr. MG1655
Estrogen receptor beta = Estrogen receptor beta (Homo sapiens, UniProt Q92731); test: blockers of SRC-3 recruitment to ERβ – biochemical, ELISA, streptavidin-HRP readout, orthogonal assay, confirmation (AID 1060)
Estrogen receptor beta, sequence (Q92731 whole entry): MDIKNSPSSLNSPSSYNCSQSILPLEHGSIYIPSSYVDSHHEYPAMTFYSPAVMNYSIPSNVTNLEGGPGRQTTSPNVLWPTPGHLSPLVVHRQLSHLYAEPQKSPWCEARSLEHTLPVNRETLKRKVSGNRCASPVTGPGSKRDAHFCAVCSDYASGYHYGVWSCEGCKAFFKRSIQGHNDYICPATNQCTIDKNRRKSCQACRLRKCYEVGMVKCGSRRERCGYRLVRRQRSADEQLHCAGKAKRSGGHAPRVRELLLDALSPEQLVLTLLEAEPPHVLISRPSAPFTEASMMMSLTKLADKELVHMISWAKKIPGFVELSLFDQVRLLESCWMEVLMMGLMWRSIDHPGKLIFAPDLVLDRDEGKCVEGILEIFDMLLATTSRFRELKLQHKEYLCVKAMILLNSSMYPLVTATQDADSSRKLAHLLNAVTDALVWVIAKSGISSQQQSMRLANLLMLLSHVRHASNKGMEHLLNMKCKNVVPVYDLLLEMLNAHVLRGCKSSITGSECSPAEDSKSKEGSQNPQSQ

[4] = biological target: Luciferin 4-monooxygenase (Photinus pyralis, UniProt P08659); test: Counter Screen for Luciferase-based Assay Positives. [Related pubchem assays: 620, 618, 411 ]
Luciferin 4-monooxygenase, sequence (P08659 whole entry): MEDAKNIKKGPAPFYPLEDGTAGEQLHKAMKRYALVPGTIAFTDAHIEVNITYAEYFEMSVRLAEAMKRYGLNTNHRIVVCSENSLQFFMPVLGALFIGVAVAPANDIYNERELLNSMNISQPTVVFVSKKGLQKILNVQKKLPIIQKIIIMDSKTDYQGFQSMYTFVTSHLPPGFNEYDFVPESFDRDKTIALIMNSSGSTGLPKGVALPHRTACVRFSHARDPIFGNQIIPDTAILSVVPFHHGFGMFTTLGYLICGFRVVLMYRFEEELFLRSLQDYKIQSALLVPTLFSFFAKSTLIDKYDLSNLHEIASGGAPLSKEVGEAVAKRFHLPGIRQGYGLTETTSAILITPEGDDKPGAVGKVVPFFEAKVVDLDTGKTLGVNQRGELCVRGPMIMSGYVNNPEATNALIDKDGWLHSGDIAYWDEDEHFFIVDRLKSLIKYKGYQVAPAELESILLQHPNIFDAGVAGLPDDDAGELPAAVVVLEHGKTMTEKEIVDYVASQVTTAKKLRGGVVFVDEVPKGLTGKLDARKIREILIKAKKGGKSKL

[5] = biological target: T2, Sentrin-specific protease 8 (Homo sapiens, UniProt Q96LD8); type: functional;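 further: luminescence read-out of SENP8 inhibition, dose-response confirmation following an ultra-high-throughput screen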
T2 sequence (Q96LD8 whole entry): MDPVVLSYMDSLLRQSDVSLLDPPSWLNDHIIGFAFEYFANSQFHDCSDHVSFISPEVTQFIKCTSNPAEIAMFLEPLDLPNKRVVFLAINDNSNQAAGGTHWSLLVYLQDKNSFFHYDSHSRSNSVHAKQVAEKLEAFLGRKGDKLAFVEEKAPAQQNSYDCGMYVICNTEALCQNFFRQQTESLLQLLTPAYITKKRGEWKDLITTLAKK

[6] = biological target: Cyclin-dependent kinase 8 (Homo sapiens, UniProt P49336); test: Navigating the Kinome. Panel member name: CDK8; type: functional
Cyclin-dependent kinase 8, sequence (P49336 whole entry): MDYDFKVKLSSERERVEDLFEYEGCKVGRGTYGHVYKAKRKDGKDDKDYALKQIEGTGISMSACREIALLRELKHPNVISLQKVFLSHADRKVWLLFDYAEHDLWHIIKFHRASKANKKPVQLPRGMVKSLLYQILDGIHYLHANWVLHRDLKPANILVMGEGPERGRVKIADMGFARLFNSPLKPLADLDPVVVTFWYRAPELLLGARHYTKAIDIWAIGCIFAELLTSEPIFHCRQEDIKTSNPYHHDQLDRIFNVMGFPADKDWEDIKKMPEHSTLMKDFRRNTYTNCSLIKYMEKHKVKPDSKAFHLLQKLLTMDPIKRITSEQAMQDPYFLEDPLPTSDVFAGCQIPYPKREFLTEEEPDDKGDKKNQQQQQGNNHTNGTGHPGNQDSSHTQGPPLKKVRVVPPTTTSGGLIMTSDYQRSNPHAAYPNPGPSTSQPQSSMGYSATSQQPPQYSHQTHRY

[7] = biological target: Tyrosine-protein kinase ABL1 (Homo sapiens, UniProt P00519); type: functional
[8] = biological target: Serine/threonine-protein kinase PAK 4 (Homo sapiens, UniProt O96013); type: functional;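 further: value obtained within a kinome profiling panel in which PAK4 was one of the panel members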
Serine/threonine-protein kinase PAK 4, sequence (O96013 whole entry): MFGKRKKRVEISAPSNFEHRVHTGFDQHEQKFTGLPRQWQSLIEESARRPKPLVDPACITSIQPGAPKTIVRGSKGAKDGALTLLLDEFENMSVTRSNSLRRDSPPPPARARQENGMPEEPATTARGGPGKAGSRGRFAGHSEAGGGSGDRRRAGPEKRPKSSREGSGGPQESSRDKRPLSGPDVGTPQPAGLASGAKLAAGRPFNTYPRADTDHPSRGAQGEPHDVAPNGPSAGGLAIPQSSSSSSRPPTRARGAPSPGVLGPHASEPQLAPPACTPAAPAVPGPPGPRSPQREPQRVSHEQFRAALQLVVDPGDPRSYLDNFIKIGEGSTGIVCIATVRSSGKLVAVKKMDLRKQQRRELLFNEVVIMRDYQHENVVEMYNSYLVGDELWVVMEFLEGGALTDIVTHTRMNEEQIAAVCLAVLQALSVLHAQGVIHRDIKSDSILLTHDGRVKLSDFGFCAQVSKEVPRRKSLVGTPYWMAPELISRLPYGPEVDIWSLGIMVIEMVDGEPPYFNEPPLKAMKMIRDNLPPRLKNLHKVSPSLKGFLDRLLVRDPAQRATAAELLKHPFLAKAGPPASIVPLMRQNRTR

[9] = biological target: BDNF/NT-3 growth factors receptor (Homo sapiens, UniProt Q16620); type: functional;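 further: NTRK2 measured as one member of a broad kinome-wide kinase profiling panel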
BDNF/NT-3 growth factors receptor, sequence (Q16620 whole entry): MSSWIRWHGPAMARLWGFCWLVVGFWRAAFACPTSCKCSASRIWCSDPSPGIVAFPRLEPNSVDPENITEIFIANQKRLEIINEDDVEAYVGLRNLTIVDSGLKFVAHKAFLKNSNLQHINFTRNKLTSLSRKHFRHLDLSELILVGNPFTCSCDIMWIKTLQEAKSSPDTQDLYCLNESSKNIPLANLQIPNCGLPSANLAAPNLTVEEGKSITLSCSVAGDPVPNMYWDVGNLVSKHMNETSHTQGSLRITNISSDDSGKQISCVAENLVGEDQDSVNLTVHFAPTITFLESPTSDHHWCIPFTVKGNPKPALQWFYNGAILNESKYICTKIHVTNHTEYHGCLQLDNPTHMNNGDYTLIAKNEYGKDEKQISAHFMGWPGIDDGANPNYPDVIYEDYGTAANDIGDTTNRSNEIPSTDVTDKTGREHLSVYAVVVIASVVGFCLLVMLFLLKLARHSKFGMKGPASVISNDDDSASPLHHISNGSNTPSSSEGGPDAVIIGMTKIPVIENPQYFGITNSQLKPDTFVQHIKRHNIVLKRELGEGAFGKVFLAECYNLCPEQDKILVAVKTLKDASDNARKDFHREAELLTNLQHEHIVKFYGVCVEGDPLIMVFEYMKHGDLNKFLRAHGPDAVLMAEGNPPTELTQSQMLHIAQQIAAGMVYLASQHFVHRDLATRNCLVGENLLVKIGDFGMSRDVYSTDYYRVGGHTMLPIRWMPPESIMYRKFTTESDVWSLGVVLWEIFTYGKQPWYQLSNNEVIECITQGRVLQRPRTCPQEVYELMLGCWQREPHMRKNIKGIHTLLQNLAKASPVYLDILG

[10] = biological target: Mitogen-activated protein kinase kinase kinase kinase 2 (Homo sapiens, UniProt Q12851); type: functional;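 further: measured as one member of a kinome-wide kinase panel, with MAP4K2 as the panel entry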
Mitogen-activated protein kinase kinase kinase kinase 2, sequence (Q12851 whole entry): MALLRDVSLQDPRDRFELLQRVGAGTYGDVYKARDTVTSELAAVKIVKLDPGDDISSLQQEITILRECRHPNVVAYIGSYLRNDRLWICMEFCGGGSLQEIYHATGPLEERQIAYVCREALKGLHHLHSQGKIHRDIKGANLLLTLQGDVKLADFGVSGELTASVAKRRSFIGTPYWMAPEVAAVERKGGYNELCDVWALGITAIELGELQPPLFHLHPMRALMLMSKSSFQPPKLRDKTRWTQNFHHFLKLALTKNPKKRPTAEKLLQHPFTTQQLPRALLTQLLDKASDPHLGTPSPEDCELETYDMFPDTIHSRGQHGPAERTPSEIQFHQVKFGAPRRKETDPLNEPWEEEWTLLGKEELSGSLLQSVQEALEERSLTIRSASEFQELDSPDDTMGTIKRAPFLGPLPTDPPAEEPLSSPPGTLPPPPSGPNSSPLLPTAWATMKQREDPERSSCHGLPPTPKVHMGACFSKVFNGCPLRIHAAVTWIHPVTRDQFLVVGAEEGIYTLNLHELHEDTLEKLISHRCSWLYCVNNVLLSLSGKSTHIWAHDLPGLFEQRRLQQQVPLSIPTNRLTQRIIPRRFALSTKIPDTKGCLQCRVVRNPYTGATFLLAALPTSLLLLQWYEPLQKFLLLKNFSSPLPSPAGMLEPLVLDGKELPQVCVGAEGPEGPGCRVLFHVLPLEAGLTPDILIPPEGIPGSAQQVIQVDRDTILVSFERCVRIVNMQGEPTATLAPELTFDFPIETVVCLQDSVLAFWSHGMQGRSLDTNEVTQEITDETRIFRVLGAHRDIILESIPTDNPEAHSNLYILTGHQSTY

Aurora kinase A = Aurora kinase A (Homo sapiens, UniProt O14965); type: functional;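 further: value from the Navigating the Kinome kinase panel profiling, panel entry STK6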
Aurora kinase A, sequence (O14965 whole entry, the tested form may be a part): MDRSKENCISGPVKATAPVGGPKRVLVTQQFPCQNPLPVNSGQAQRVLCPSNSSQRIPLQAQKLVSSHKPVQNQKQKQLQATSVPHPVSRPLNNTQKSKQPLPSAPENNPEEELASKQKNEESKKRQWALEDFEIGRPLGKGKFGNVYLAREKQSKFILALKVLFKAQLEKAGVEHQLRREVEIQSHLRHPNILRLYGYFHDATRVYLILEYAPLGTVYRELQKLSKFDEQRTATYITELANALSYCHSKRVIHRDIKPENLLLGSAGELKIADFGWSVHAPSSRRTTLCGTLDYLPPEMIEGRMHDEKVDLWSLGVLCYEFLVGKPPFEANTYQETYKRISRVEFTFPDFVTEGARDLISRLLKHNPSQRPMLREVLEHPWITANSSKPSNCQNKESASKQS

LIM domain kinase 1 = LIM domain kinase 1 (Homo sapiens, UniProt P53667); test: Navigating the Kinome. Panel member name: LIMK1; type: functional
LIM domain kinase 1, sequence (P53667 whole entry, the tested form may be a part): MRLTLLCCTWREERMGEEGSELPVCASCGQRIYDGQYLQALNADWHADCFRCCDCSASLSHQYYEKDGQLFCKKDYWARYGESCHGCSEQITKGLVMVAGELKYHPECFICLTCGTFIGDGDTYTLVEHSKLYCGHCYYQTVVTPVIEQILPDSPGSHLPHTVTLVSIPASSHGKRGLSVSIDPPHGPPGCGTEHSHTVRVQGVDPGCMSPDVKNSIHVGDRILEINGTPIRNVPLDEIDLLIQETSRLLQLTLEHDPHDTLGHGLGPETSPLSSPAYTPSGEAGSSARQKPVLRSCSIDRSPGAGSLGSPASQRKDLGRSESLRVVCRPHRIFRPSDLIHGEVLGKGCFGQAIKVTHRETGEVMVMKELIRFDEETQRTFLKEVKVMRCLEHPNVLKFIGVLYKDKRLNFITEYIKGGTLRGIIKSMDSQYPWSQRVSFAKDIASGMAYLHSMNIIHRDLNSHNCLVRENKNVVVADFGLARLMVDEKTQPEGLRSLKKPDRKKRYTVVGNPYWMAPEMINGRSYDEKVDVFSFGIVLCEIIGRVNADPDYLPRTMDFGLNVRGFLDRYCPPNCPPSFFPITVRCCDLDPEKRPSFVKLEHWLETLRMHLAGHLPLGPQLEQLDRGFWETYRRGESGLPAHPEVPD

With `CN1CCN(C(c2ccc(C(F)(F)F)cc2)c2cc(Cl)c3cccnc3c2O)CC1` (centres undefined) the EC50 [1] was 10.9 µM (inconclusive), the AC50 [2] was 11.9 µM (active) and the EC50 [3] was 9.3 µM (active). The IC50 (Exodeoxyribonuclease V) was > 119 µM (inactive).

With `NC(=O)c1c(NC(=O)c2cc3ccccc3o2)sc2c1CCC2` the IC50 (Estrogen receptor beta) was 0.0552 µM (not active), the EC50 [4] was 1.7 µM (active) and the IC50 [5] was 12.4 µM (active).

For `O=C(NC(CCO)c1ccccc1)c1ccc(-c2ccncc2)cc1` (centres undefined), the Ki [6] was 2.51 µM (active), the Ki [7] was > 3.98 µM (inactive) and the Ki [8] was > 5.01 µM (inactive). The Ki [9] was > 3.98 µM (inactive), the Ki [10] was > 2.51 µM (inactive) and the Ki (Aurora kinase A) was > 1.58 µM (inactive). For the same molecule, the Ki (LIM domain kinase 1) was > 3.16 µM (inactive).
